From paper PMC9505973, “Sustainable Production of Biosurfactant from Agro-Industrial Oil Wastes by Bacillus subtilis and Its Potential Application as Antioxidant and ACE Inhibitor” (International Journal of Molecular Sciences, 2022)

Legend:
ACE in serum = details: HFFD rats; cited from earlier work
Procedure: Biosurfactants’ inhibitory activity was analyzed in vitro as well as in vivo, using an animal model, in the work of Zouari et al.. […] Moreover, the administration of B. subtilis SPB1 lipopeptides or atorvastatin in vivo, to hypercaloric high-fat–high-fructose diet (HFFD) rats, decr ...

[1] = Ferric reducing antioxidant power (FRAP, TEAC)
Procedure: (§1) The surfactin antioxidant activity was measured using ABTS, DPPH and FRAP assays. Each measurement was performed in triplicate. The ABTS assay was conducted according to Re et al.. In the first instance, radical cation (ABTS^•+) solution was prepared by mixing 7 mM ABTS stock solution (Sigma-Aldrich) with 2.45 mM potassium persulfate solution (Sigma-Aldrich). The mixture was incubated in the dark at room temperature for 12–16 h. Then, the reagent absorbance was adjusted to 0.7 (±0.02) at 734 nm, using distilled water as a blank. The antioxidant activity of the biosurfactant was determined by mixing 10 μL of surfactin (1 mg/mL) with 990 μL of ABTS^•+ solution. The absorbance was measured after 5 min incubation in the dark, using the Spark multimode microplate leader (Tecan Group Ltd., Männedorf, Switzerland), at 734 nm. The standard curve was prepared for Trolox ethanol solution (Sigma-Aldrich, St. Louis, MO, USA) in the range of 0–2000 μM. The activity of surfactin was expressed as the Trolox equivalent antioxidant capacity (TEAC [µM/g]).
Finally, the FRAP assay was conducted according to Benzie et al.. The reaction, performed at pH = 3.6, involved the reduction of Fe^3+ to Fe^2+ in the presence of 2,4,6-trypyridyl-s-triazine, followed by the formation of a colored complex. […]

[2] = DPPH free radical scavenging (TEAC)
Procedure: as §1, with “The standard curve was prepared for Trolox ethanol solution (Sigma-Aldrich, St. Louis, MO, USA) in the range of 0–2000 μM.” left out
In addition, the antioxidant activity of surfactin, expressed as the ability to scavenge DPPH free radicals, was investigated according to Xu et al.. […] The sample was centrifuged (12000 rpm) and the absorbance was measured using the Spark multimode microplate leader (Tecan Group Ltd., Männedorf, Switzerland) at 517 nm. The antioxidant activity of surfactin was expressed as Trolox equivalent (TEAC [µM/g]). […]

[3] = system: angiotensin-converting enzyme (ACE); experiment: ACE-inhibitory activity assay; type: biochemical
Procedure: The ACE-inhibitory activity assay was performed according to Udenigwe and Aluko [56] and quantified by a regression analysis of ACE-inhibitory activity (%) versus surfactin concentration. The IC50 value, i.e., the surfactin concentration (µg/mL) that causes 50% inhibition of ACE activity, was determined. The assay was carried out in triplicate.

[4] = ABTS radical cation assay (TEAC)
Procedure: as §1

| Molecule | reduction in ACE activity (ACE in serum) | TEAC, FRAP ([1]; 50 μL surfactin (1 mg/mL) + 150 μL working solution, pH 3.6, 10 min, room temperature, 593 nm, Trolox standard, triplicate) | antioxidant activity (FRAP), in words ([1]; surfactin 1 mg/mL) | TEAC, DPPH ([2]; 10 μL surfactin (1 mg/mL) + 190 μL 0.1 mM DPPH in ethanol, 30 min in the dark, 517 nm, Trolox standard 0–1000 μM, triplicate) | antioxidant activity (DPPH), in words ([2]; surfactin 1 mg/mL) | ACE inhibition, in words [3] | IC50, ACE-inhibitory activity ([3]; regression of ACE-inhibitory activity (%) versus surfactin concentration, triplicate) | TEAC, ABTS ([4]; 10 μL surfactin (1 mg/mL) + 990 μL ABTS•+, 5 min in the dark, 734 nm, Trolox standard 0–2000 μM, triplicate) | antioxidant activity (ABTS), in words ([4]; surfactin 1 mg/mL) |
| --- | --- | --- | --- | --- | --- | --- | --- | --- | --- |
| CC(C)c1c(C(=O)Nc2ccccc2)c(-c2ccccc2)c(-c2ccc(F)cc2)n1CC[C@@H](O)C[C@@H](O)CC(=O)O [atorvastatin] | 24% |  |  |  |  |  |  |  |  |
| surfactin |  | 0.76 ± 0.096 µM/g | trace antioxidant activity | 11.67 ± 0.8 µM/g | trace antioxidant activity | strong inhibitory effect against ACE activity | 620 ± 40 µg/mL | 3.77 ± 0.22 µM/g | trace antioxidant activity |
